Measured values as given in patent US11299760B2 (Amgen Inc., priority 2013, dated 2022).

Tests used:
[1] = tested on: recombinant cell line producing MAb E; experiment: ATF bioreactors, cell culture performance; assay type: cell-based; details: 500 nM monensin for ~22 hours from day 8; ATF reactors Ra, Rb
Protocol: Cells in the control reactor (black circles) were grown in the absence of monensin. Viable cell density is illustrated in FIG. 1. FIG. 2 presents the results of viability analysis. […] Daily spent medium samples were also submitted for titer analysis.
The applicability of using monensin to modulate high mannose levels in a large scale, controlled production setting was evaluated using a recombinant cell line producing MAb E in alternating tangential flow (ATF) bioreactors. MAb E cells grown in growth medium for the seed train were used to inoculate the N-1 bioreactor at 6×10^5 cells/ml in growth medium. The cells from N-1 bioreactor were then used to inoculate three, 2 L production bioreactors (N) at 7.5×10^5 cells/ml in base perfusion medium (referred to as control, Ra, and Rb bioreactors).
The production bioreactors were grown for 20 days at pH 7.00, 36° C., 30% DO and 400 rpm agitation. These production tanks were run with the ATF system starting on day 3 with 0.5 vol/day perfusion rate, which was increased to 0.6 vol/day, 0.8352 vol/day and 1 vol/day on day 6, 7 and 8, respectively. Glucose levels were maintained separately at 5 g/L since the perfusion medium was prepared without glucose.
Antifoam was also added into the tank as needed, while 1M Sodium Carbonate was used to maintain pH at the desired setpoint. […]

Cells producing MAb B = experiment: mock perfusion assay, cell culture parameters; assay type: cell-based, Chinese hamster; details: for CVCD / Cumulative Titer / End of Production Viability / qP: MAb B
Protocol: (§1) Mock perfusion assay is a small scale, plate-based assay that is designed to mimic perfusion conditions in bioreactors through daily medium exchanges. For a 10-day mock perfusion assay, passaging cultures of various production cell lines were diluted 1:5 into chemically defined base perfusion medium in a 24 deep-well plate at a final volume of 3 ml per well. Mock perfusion was initiated on day 3 when the cells were spun down at 1000 rpm for 5 minutes and 25% of each spent culture medium was exchanged with the equivalent volume of fresh perfusion media. Subsequent medium exchange percentages were 40% on days 4-8 and 50% on day 9. Exchanged supernatants were stored at 4° C. prior to analysis.
(§2) Analysis of cell culture parameters was also started on day 3; viable cell density and viability were analyzed using the ViaCount Guava assay as previously described. Glucose was measured daily starting on day 3 and was maintained at 12 g/l. Stored supernatants were analyzed for antibody titer as described previously. Samples of supernatant fluid from days 6, 8 and 10 were also analyzed for the presence and type of glycans by HILIC analysis.
(§3) The cell lines used included three production cell lines that are known to generate mAbs with low high mannose glycans (MAb A, MAb B and MAb C) and one production cell line that consistently produces product with high levels of high mannose glycans (MAb D). […] Equivalent volumes of methanol were added daily to control cultures (columns 1 and 2 of the 24-well plate). This scheme is depicted below:
(§4) Viable cell density (VCD) and viability were measured daily starting on day 3. Spent medium samples were collected on days 3-10 and were subjected to titer analysis. Viable cell densities were used to calculate cumulative viable cell densities, which were along with cumulative titer values used to calculate specific productivities (qP). Every value shown is an average of duplicates.

Cells producing MAb C = experiment: mock perfusion assay, cell culture parameters; assay type: cell-based, Chinese hamster; details: for CVCD / Cumulative Titer / End of Production Viability / qP: MAb C
Protocol: as §1, §2, §3, §4

Cells producing MAb A = experiment: mock perfusion assay, cell culture parameters; assay type: cell-based, Chinese hamster; details: for CVCD / Cumulative Titer / End of Production Viability / qP: MAb A
Protocol: as §1, §2, §3, §4

[2] = increasing monensin (to 100 nM)

CC[C@@]1([C@@H]2O[C@@H]([C@H]3O[C@@](O)(CO)[C@H](C)C[C@@H]3C)C[C@@H]2C)CC[C@H]([C@]2(C)CC[C@]3(C[C@H](O)[C@@H](C)[C@@H]([C@@H](C)[C@@H](OC)[C@H](C)C(=O)O)O3)O2)O1 [monensin]
impact on cell growth and viability [1]: slight negative impact on cell growth and viability | titers compared to the control tank [1]: marginally improved titers | effect on growth or viability (Cells producing MAb B; MAb B cells, mock perfusion): no effect on the growth or viability | effect on titer and specific productivity (Cells producing MAb B; MAb B cells, mock perfusion): no impact on either titer or specific productivity | CVCD (Cells producing MAb B; constant monensin 25 nM): 89 10^6 c-day/ml | Cumulative Titer (Cells producing MAb B; constant monensin 25 nM): 3.5 g/L | End of Production Viability (Cells producing MAb B; constant monensin 25 nM): 85% | qP (Cells producing MAb B; constant monensin 25 nM): 40 pg/c/d | CVCD (Cells producing MAb B; [2]): 88 10^6 c-day/ml | Cumulative Titer (Cells producing MAb B; [2]): 3.6 g/L | End of Production Viability (Cells producing MAb B; [2]): 83% | qP (Cells producing MAb B; [2]): 40 pg/c/d | effect on cumulative viable cell density and viability (Cells producing MAb C; MAb C cells, mock perfusion): slightly increased cumulative viable cell density and improved the viability | effect on titer and specific productivity (Cells producing MAb C; MAb C cells, mock perfusion): increased titer but slightly lower specific productivity | titer and cell culture impacts (Cells producing MAb C; MAb C cells, mock perfusion with monensin): no drop in titer or any other negative cell culture impacts | CVCD (Cells producing MAb C; constant monensin 25 nM): 215 10^6 c-day/ml | Cumulative Titer (Cells producing MAb C; constant monensin 25 nM): 7.4 g/L | End of Production Viability (Cells producing MAb C; constant monensin 25 nM): 77% | qP (Cells producing MAb C; constant monensin 25 nM): 34 pg/c/d | CVCD (Cells producing MAb C; [2]): 208 10^6 c-day/ml | Cumulative Titer (Cells producing MAb C; [2]): 7.1 g/L | End of Production Viability (Cells producing MAb C; [2]): 77% | qP (Cells producing MAb C; [2]): 34 pg/c/d | effect on cell growth (Cells producing MAb A; MAb A cells, mock perfusion): decrease in total cell mass accumulation | effect on titer and specific productivity (Cells producing MAb A; MAb A cells, mock perfusion): decreased titer but increased specific productivity | CVCD (Cells producing MAb A; constant monensin 25 nM): 57 10^6 c-day/ml | Cumulative Titer (Cells producing MAb A; constant monensin 25 nM): 5.9 g/L | End of Production Viability (Cells producing MAb A; constant monensin 25 nM): 78% | qP (Cells producing MAb A; constant monensin 25 nM): 103 pg/c/d | CVCD (Cells producing MAb A; increasing monensin (to 50 nM)): 57 10^6 c-day/ml | Cumulative Titer (Cells producing MAb A; increasing monensin (to 50 nM)): 5.8 g/L | End of Production Viability (Cells producing MAb A; increasing monensin (to 50 nM)): 80% | qP (Cells producing MAb A; increasing monensin (to 50 nM)): 101 pg/c/d
